Results from patent US20210213135A1 (Purdue Research Foundation, priority 2018, published 2021).
Primed or numbered codes have the meaning given here. Where no end group is shown, it is not given here. [ ]: non-standard residue; d: D form. mp4″ = 4 mini PEG linker (mini-PEG spacer)

Columns and labels:
[1] = test system: Swiss Webster fracture-bearing mice (fracture callus); assay: micro CT of the fracture callus in the femur fracture model; type: in vivo
[2] = test system: Swiss Webster fracture-bearing mice (healed femur); assay: postmortem 4 point bend of the healed femur; type: in vivo
Description: All in vivo data included herein are from Swiss Webster mice. All mice received an osteotomy on their right femur and received subcutaneous drug administration daily for either 2,3 or 4 weeks, or 17 days, as indicated, for each compound. 1× concentration represents 1 nmol/day, 10× represents 10 nmol/day, 100× represents 100 nmol/day most studies have an n of 5.
The term “Peak Load” means a postmortem 4 point bend of the healed femur. Peak load represents the maximum force the healed femur withstood before it refractured.
The targeted conjugates were synthesized using standard Fmoc solid-phase peptide synthesis, as described above. To ensure the conjugates' activity, mouse pre-osteoblast ([…]) cells were treated with the targeted and untargeted compounds for three days at concentrations from 1 pM to 100 nM. After three days of treatment, the cells were harvested, and the RNA was purified from the cells. Expression levels of ALP, RUNx2 (transcription factor for osteoblast differentiation), osterix (OSX), osteopontin (OPN), collagen 1A (Col-1A), OPG, RANKL, sclerostin gene (SOST), and OC were quantified via quantitative reverse transcription polymerase chain reaction (RT-qPCR). Once the biological activity of the conjugates was confirmed, they were tested in vivo in a fracture model. Aseptic surgical techniques were used to place a 23-gage needle as in intramedullary nail in the femur of anesthetized, 12-week-old Swiss Webster mice for internal fixation before fracture. Femur fractures were induced using a drop weight fracture device from RISystem. The mice received buprenorphine for three days post fracture. The mice were dosed subcutaneously each day for three weeks or 17 days. Fracture healing was assessed using microCT (Scanco Medical Ag). Morphometric parameters were quantified in the 100 widest slices of the fracture callus. Trabecular thickness (Tb.Th.), trabecular spacing (Tb.Sp.), total volume (TV), and volume of calcified callus (BV) were calculated. Fractured femurs were tested for strength in a four-point bend to failure using an Electro Force TestBench (TA Instruments). Lower supports were 10 mm apart on the anterior face of the femur in contact with the proximal and distal diaphysis. Upper supports were 4 mm apart and spanned the entire fracture callus on the diaphysis. Force was applied from the posterior face of the femur with a displacement rate of 0.3 mm/sec. Peak load, yield load, stiffness, displacement post yield, work to fracture, and deformation data were generated. Statistical analysis was performed using a two-way analysis of variance (ANOVA) and a Tukey post-hoc analysis with significance reported at the 95% confidence level. All animal experiments were performed in accordance with protocols approved by Purdue University's Institutional Animal Care and Use Committee (IACUC).

[3] = 17 days, 0.1, 1 and 10 nmol daily s.c., n=5

SPARC113_mp4_(D)E10: SEQ ID NO: 30, SPARC residues 113-127 conjugated via 4 minipegs with 10 glutamic acids (H[dE][dE][dE][dE][dE][dE][dE][dE][dE][dE][mp4″]TLEGTKKGHKLHLDY)
BV (bone volume) [1, 3]: raises bone mineralization | BV/TV [1, 3]: raises bone density | Max load (peak load) [2, 3]: raises bone strength | Work to fracture [2, 3]: raises bone strength

substance P D10: SEQ ID NO: 4, substance P with 4 mini PEG linker and conjugated with 10 aspartate acids (DDDDDDDDDDRPKPQQFFGLM; 4 mini PEG linker; substance P 4 mini PEG D10 with; (10)..(11) 4 mini PEG linker)
BV/TV ([1]; 4 weeks, 1, 10 and 100 nmol/day): dose dependent manner | Peak load (max load) of healed femur ([2]; 4 weeks, printed dose 0×): 30-35 Newtons
